Experimental data taken from patent US20190030053A1, “COMPOSITION FOR INCREASING EXPRESSION OF PGC-1alpha” (BENEBIOSIS CO., LTD., priority 2016, published 2019).

Tests used:
[1] = test system: PGC-1α and related genes; experiment: Abdominal fat gene expression in high-fat diet ob mouse models; type: in vivo; settings: ob mice, oral 0.1 mg/kg/day, 10 weeks
Protocol: In order to investigate gene expression changes and topical fat removal effects by treatment with SL (3′-SL & 6′-SL) composition in mouse models, 4-week-old male ob mouse (C57BL/6J-ob/ob) models were purchased from Central Lab Animal (Korea). Water was freely accessible, and a high-fat diet (Rodent Diet with 60 kcal % fat) was supplied for two weeks. […]
Sialyllactose or DW was orally administered daily. […] The dietary intake and body weight change were measured every 5 days. […]
Gene expression changes by the treatment with SL (3′-SL & 6′-SL) compositions were quantitatively compared in the abdominal part. RNA was extracted by TRIzol agent (Invitrogen). cDNA was synthesized by using RNA, which has been extracted as above and quantified, and a reverse transcription system (Promega, USA). The expression patterns of PGC-1α and related genes were measured by using pre-designed primers and probes (Applied Biosystems; PGC-1α, Mm00447181_m1, GAPDH, and Mm99999915_q1) for the synthesized cDNA and analysis targets (Fndc5, PGC-1α, Erra, UCP1, SOD2, and GPX1). […]

[2] = test system: ob mouse (C57BL/6J-ob/ob) models; experiment: Topical fat removal by meso roller administration in ob mouse models; type: in vivo; settings: 0.1 M SL, meso roller on day 0 and day 4, observed on day 7
Protocol: In addition, in the ob mouse (C57BL/6J-ob/ob) models fed with a high-fat diet without SL treatment, the topical fat removal effect by SL (3′-SL & 6′-SL) administration using a meso roller (0.5 mm, INTO MR, Intomedi Inc.) was investigated. Specifically, the hairs on the dorsal side of the […] were shaved, and 0.1 M SL in the saline buffer was applied to the skin, and was absorbed into the skin by rubbing with the meso roller. The control group was tested by the same method except that the buffer was used without SL. […] In FIG. 15, 3′-SL, 6′-SL, and CTL represent the 3′-SL administration group, the 6′-SL administration group, and the control group, respectively. After feeding with a high-fat diet for 10 weeks, SL (3′-SL & 6′-SL) compositions were topically administered on day 0 and day 4 using the meso roller, and then dermoscopy observation was conducted on day 7. The observation results are shown.

[3] = test system: PGC-1α and related genes; experiment: Gene expression by body parts in skin test models; type: in vivo, mouse; settings: HRM2 mice, oral 0.1 mg/kg/day, 10 weeks; organs and muscles
Description: In order to investigate the gene expression chages by body parts by the treatment with the SL (3′-SL & 6′-SL) compositions in skin test models, 6-week-old male skin test model (HRM2) mice (hairless appearance containing melanin) were randomly grouped into three different dietary treatment groups (8 animals per group, a total of 24 animals) below, and the diets (AIN-76A, Dyets, USA) were maintained for 10 weeks. […]
The gene expression changes by administration of the SL (3′-SL & 6′-SL) compositions were quantitatively compared for eight main organs (heart, hippocampus, brain, spinal cord, lung, liver, spleen, and kidney), three skeletal muscles (soleus muscle, quadriceps femoris muscle, and gastrocnemius muscle), and the like. RNA was extracted by TRIzol agent (Invitrogen). cDNA was synthesized by using RNA, which has been extracted as above and quantified, and a reverse transcription system (Promega, USA). The expression patterns of PGC-1α and related genes were measured by using pre-designed primers and probes (Applied Biosystems; PGC-1α, Mm00447181_m1, GAPDH, and Mm99999915_q1) for the synthesized cDNA and analysis targets (Fndc5, PGC-1α, Erra, UCP1, SOD2, and GPX1). […]

Structure (SMILES)	expression levels of analysis targets (Fndc5, PGC-1α, Erra, UCP1, SOD2, GPX1) in abdominal fat vs negative control [1]	topical fat removal (dermoscopy) vs negative control portion [2]	expression levels of analysis targets (Fndc5, PGC-1α, Erra, UCP1, SOD2, GPX1) vs negative control [3]
CC(=O)N[C@H]1[C@H]([C@H](O)[C@H](O)CO)O[C@@](O[C@H]2[C@@H](O)[C@@H](CO)O[C@@H](O[C@H]3[C@H](O)[C@@H](O)C(O)O[C@@H]3CO)[C@@H]2O)(C(=O)O)C[C@@H]1O (stereo partly drawn) [3′-SL, α-NeuNAc-(2→3)-β-D-Gal-(1→4)-D-Glc]	relatively low compared with 6′-SL	relatively low compared with 6′-SL	relatively low compared with 6′-SL
CC(=O)N[C@H]1[C@H]([C@H](O)[C@H](O)CO)O[C@@](OC[C@H]2O[C@@H](O[C@H]3[C@H](O)[C@@H](O)[C@H](O)O[C@@H]3CO)[C@H](O)[C@@H](O)[C@H]2O)(C(=O)O)C[C@@H]1O [6′-SL, α-NeuNAc-(2→6)-β-D-Gal-(1→4)-D-Glc]	about two-time significant increases	topical fat was removed	very excellent
